Experimental data from patent publication US7667100B2, “Nucleic acid compositions conferring herbicide resistance” (Dow AgroSciences LLC, priority 2002, dated 2010).

System: Arabidopsis thaliana
Experiment: Auxin tolerance testing of stably transformed Arabidopsis thaliana
Type: in vivo
Details: 50 μL of 3.75 g ae/ha solution on one lower leaf, within five days
Source text: One of the auxin tolerance sequences, 129965 (SEQ ID NO:10), was selected for stable expression analysis using a model plant system, Arabidopsis thaliana. This required cloning of the GENEWARE® vector insert into a binary vector suitable for Agrobacterium transformation. Agrobacteriuni encoding the gene of interest as well as a selectable marker was then utilized to transform Arabidopsis plants. Transgenic plants derived from the first generation of seed (T1) were selected based on glufosinate resistance and subsequently tested for tolerance to auxin 4-amino-3,6-dichloropyridine-2-carboxylic acid.
Plant growth and maintenance. Freshly harvested Arabidopsis thaliana (Columbia ecotype) seed was allowed to dry at least 7 days at room temperature in the presence of desiccant. Dried seed was sterilized with a 0.1% Triton X-100 (Sigma Chemical Co., St. Louis, Mo.) and 70% ethanol solution (3 min) using 95% ethanol as a wash (30 sec). After sterilization, seed was suspended in a 0.1% agarose (Sigma Chemical Co., St. Louis, Mo.) solution. The suspended seed was stored at 4° C. for 2 days to complete dormancy requirements and ensure synchronous seed germination (stratification).
Sunshine Mix LP5 (Sun Gro Horticulture Inc., Bellevue, Wash.) was covered with fine vermiculite and subirrigated with Hoagland's solution (see Example 9) until wet. The soil mix was allowed to drain for 24 hours. […]

Structure (SMILES): Nc1cc(Cl)nc(C(=O)O)c1Cl [4-amino-3,6-dichloropyridine-2-carboxylic acid, reference compound]
- auxin symptoms in wild type plants: systemic symptoms of epinasty and leaf cupping, as well as meristem swelling and significant chlorosis
